Data set [1] is described as follows: Storage stability of the anhydrous crystalline form at room temperature. The data set is classed as physicochemical. The source says: (§1) Such stability is vital for a pharmaceutical since stocks thereof may be stored for long periods prior to use. […] The forms of the invention are therefore suitable for transport in countries where ambient temperatures are exceptionally high.

The format of data set [2] is physicochemical.
Excerpt: as §1

Counter-ions that a name gives are not always drawn.

As to `CC(C)[C@H](N)C(=O)OCCOCn1cnc2c(=O)[nH]c(N)nc21` [valacyclovir hydrochloride], the “time shown to be stable” value in data set [1] is “over 3 years”. Also, the “time for which stability is exhibited when heated” value in data set [2] is reported as “over 550 hours”.

For the origin of these results see patent publication US20060229322A1, “Anhydrous crystalline form of valacyclovir hydrochloride” (priority 2002, published 2006).
